Data set [1] has as its system Plasmodium berghei NK-65 (chloroquine-resistant). As to the kind of experiment: In vivo blood stage mouse model, modified Peters four-day suppressive test. As for the experimental part:
Specifically, a murine model of malaria was developed wherein thirty healthy Swiss albino mice were inoculated intraperitoneally with 1×10^7 Plasmodium berghei NK-65 (chloroquine-resistant) infected red blood cells (RBCs) suspended in RPMI 1640 medium (commercially available from Thermo Fisher Scientific Inc.; 200 μL). A first set of the infected mice was treated each day with a single dose of 50 mg/kg of Compound I, and a second set was not treated. The survival of the mice was monitored to day 30 post-infection using a Kaplan-Meier survival analysis, and the statistical difference in animal survival was analyzed by a log rank test. Representative data for the percent parasitemia for untreated mice (control) and mice treated with Compound I are shown in Table 4 and FIG. 2A and FIG. 2B.
Activity of Compound I (Calxinin) was tested using a slightly modified version of Peter's 4-day suppressive test: initial infection of mice with P. berghei parasites, followed one dose 50 mg/kg of drug treatment, followed by monitoring of parasitemia as well as external signs of disease progression for up to 10 days.
10^7 Plasmodium berghei NK-65 (CQ-resistant) were administered by i.p into Swiss albino mice (6 mice/group). Infected mice were either treated with Compound I (Calxinin) or injected with DMSO alone (untreated vehicle control). […] The survival of the mice was followed up to day 30 post-infection using Kaplan-Meier survival analysis (FIG. 6B). Animal survival was analyzed by a log rank test.

For data set [2], the system named is P. falciparum, strain IPC 3445. As to the kind of experiment: Growth inhibition of ART resistant field strain. The settings on record: Plasmodium falciparum, 72 h, read-out: IC50, ART resistant strain IPC 3445. It is filed as cell-based. As for the experimental part: Plasmodium falciparum (P. falciparum), strain IPC 3445 was isolated in 2010 from the blood of a human patient with malaria in Pailin province, western Cambodia. Parasites were grown in the lab and tested with different concentrations of the Calxinin and DHA (100 μM-90 nM) for 72 hr incubations.

Data set [3] relates to P. falciparum CQ-sensitive (Pf3D7). Nature of the data set: SYBR Green I assay, asynchronous cultures, CQ-sensitive clone. The class given is cell-based. The settings on record: Plasmodium falciparum. As to the method:
Initially, antimalarial activity of Compound I was assessed on asynchronous cultures of P. falciparum sensitive (Pf3D7) clone using the SYBR Green assay. […] DMSO was used as a vehicle control, CQ (Chloroquine), DOX (Doxycycline) and DHA (Dihydroartemisinin).

Data set [4] concerns Field isolates from Kenya (P. falciparum infected blood). Nature of the data set: Screening against freshly collected field isolates. The settings on record: Plasmodium falciparum. It is filed as cell-based.
Data set [5] can be described thus: In vitro cytotoxicity, HepG2. The class given is cell-based. Conditions: human, HepG2 cells; read-out: CC50 (50% cell toxicity).
Data set [6] deals with Leishmania donovani amastigotes. As to the kind of experiment: Anti-leishmania activity, amastigotes in THP-1 macrophages. The class given is cell-based. Conditions: 96 hours, read-out: IC50, L. donovani amastigotes in THP-1 macrophages. As to the method:
To test the anti-leishmania activity, Leishmania donovani strains: L. donovani reporter expressing red fluorescent protein, DsRed2 transgenic L. donovani (LV82)15, obtained from Ohio State University. Columbus (OSUMC). Extracellular (Promastigotes) L. donovani parasites were maintained in M199 media supplemented with 15% heat-inactivated fetal bovine serum (HI-FBS), 20 mM HEPES, 100 U/ml of penicillin and streptomycin at pH 5.5 with 5% CO2. Cultures were constantly maintained in a 25° C. incubator. Anti-leishmanial activity was determined by incubating exponentially growing log-phase promastigotes with THP-1 macrophage for 24 h to infect. Following this, plates were washed to remove the uninfected promastigotes, STD drug and Calxinin were treated 96-well plates for 96 hours. Miltefosine and paromomycin, standard medications, serve as a positive control at equivalent concentrations. Morphological alterations in the amastigotes following treatment with drugs, were examined by fluorescent microscopy. Images were analyzed for percent parasite survival upon drug treatment and enumerated the IC50. The inhibition curve of Compound I was very similar to Amphotericin B (AmpB) and lower than the 2 standard drugs.

Like-named read-outs stand apart in the source and are kept apart here. Marks after values point to notes of the source that are not given here.

On to `NC(Cc1ccccc1)C(O)CN1CCN(Cc2ccc(C(F)(F)F)cc2)CC1` (stereo not shown) [Compound I], for which the “activity against mixed blood stages” value in data set [1] (50 mg/kg/day (single dose), NK64 strain) was “significant activity”. Moreover, in data set [1] (Table 4, 50 mg/kg each day), the “Percent Parasitemia Day 3” value was 0.21 ** (P < 0.001). Moreover, the “Percent Parasitemia Day 7” value in data set [1] (Table 4, 50 mg/kg each day) is reported as 2.45 * (P < 0.03). Moreover, the “Percent Parasitemia Day 10” value in data set [1] (Table 4, 50 mg/kg each day) is listed as 12.3 * (P < 0.01). For the same molecule, the “% Parasitemia Day 3” value in data set [1] (Table 5, one dose 50 mg/kg) was 0.21 ** (P < 0.001) %. In addition, in data set [1] (Table 5, one dose 50 mg/kg), the “% Parasitemia Day 7” value was 2.45 * (P < 0.03) %. In data set [1] (Table 5, one dose 50 mg/kg), the “% Parasitemia Day 10” value was 12.3 * (P < 0.01) %. For the same molecule, the “reduction in parasite load” value in data set [1] (single dose 10 mg/kg, P. berghei NK64, mixed blood stage parasites) is recorded as 30%. For the same molecule, the IC50 was 0.0926 µM in data set [2]; 88 nM in data set [3] (3D7, read-out: IC50 against asexual stages, drug sensitive (CQ-sensitive) 3D7, text); 90 nM in data set [3] (72 h, read-out: Pf3D7 IC50, nM (±SD), asynchronous cultures, 37° C., 72 hours, SYBR Green I); < 90 nM in data set [3] (strain not specified, read-out: IC50 required for killing the parasite); 50 nM in data set [4] (read-out: Field isolates from Kenya IC50, nM (±SD)); 643 nM in data set [4] (read-out: IC50 against freshly collected field isolates of P. falciparum infected blood). For the same molecule, in data set [6], the IC50 came out at 0.0798 µM. Moreover, in data set [5], the CC50 is 1350 µM.

A word on the IC50: it is the point on the concentration scale where inhibition reaches its midpoint. What is called CC50 is the concentration that lowers cell viability or growth by half.

The values above are taken from patent US11485714B2, “Hydroxyethylamine-based piperazine compounds, and methods of producing and using the same for treating disease” (National Institute of Immunology, priority 2020, dated 2022).
